From patent US10441540B2, “Liposomal lupeol acetate and the use thereof in preparing drugs for rheumatoid arthritis” (NATIONAL YANG-MING UNIVERSITY, priority 2014, dated 2019)

What was measured:
NFATc1 = NFATc1 expression by real-time Q-PCR under RANKL induction; assay type: cell-based; details: NF-κB inhibitor 5 nM
Description: (§1) The cells were stained with tartrate-resistant acid phosphatase (TRAP) and observed by microscopy to assure the differentiation of osteoclast after the cultivation of five days (Bar=200 μm).
Next, the real time Q-PCR is used for analyzing the change of NFATc1 (nuclear factor of activated T cell, the major factor of osteoclast proliferation and known as cytoplasmic 1) under the RANKL induction and drug treatments.

RAW 264.7 cells = experiment: MTT cell viability of RAW 264.7 cells; assay type: cell-based; details: 2.5-10 nM, 24 hours
Procedure: RAW 264.7 cells (a mouse leukaemic monocyte macrophage cell line) were treated with solutions containing liposomal lupeol acetate (10 ? 20 ? 40 ? 80 μM) and NF-kB inhibitor QNZ (2.5 ? 5 ? 7.5 ? 10 nM), respectively, for 24 hours, then the viability was analyzed by MTT method, comparing to the results of the control group.
5×10^4 RAW264.7 cells/well were seeded in 96-well culture dishes, and treated with directed concentration of liposomal lupeol acetate and QNZ for 24 hours after the 24-hr attachment. After removing the culture medium, 100 μl of 0.5 mg/ml MTT solution was added, and the cells were incubated at 37° C. for 4 hours. The mitochondrial enzyme (succinate dehydrogenase, SDH) in living cells will react with tetrazolium bromide in the MTT solution and form formazan blue-purple crystals. The MTT solution was removed and 200 μl DMSO was added to dissolve the blue-purple crystal, and then the O.D. (optical density) value was read under wavelength of 570 nm on an ELISA reader (TECAN Sunrise, USA). The relative cell viability is calculated by comparing the absorbance value of drug treated group with that of the control group (setting the value of control group as 100%).

IL-10 = IL-10 in mouse hind leg proteins, Western blotting; details: 100 mg/kg LA or 50 mg/kg Lipo-LA, day 32
Procedure: (§4) The mice were sacrificed by cervical dislocation on the 32nd day of the animal experiment. The whole leg of mouse was removed, and the leg tissue was ground by adding an appropriate amount of lysis buffer (tissue protein extraction reagent, T-PER, Pierce Protein Biology Products, IL, USA), centrifuged at 15,000 rpm for 20 minutes, and the supernatant is taken as the sample for each group.
(§5) Meanwhile, we also use Western blotting to observe the proteins extracted from mouse hind legs, and observe the expression level of immunosuppression-related proteins TGF-β and IL-10 secreted from Treg cells.

osteoclasts = experiment: TRAP staining of RANKL-induced osteoclast differentiation from macrophage; assay type: cell-based; details: 100 ng/ml RANKL, five days
Description: as §1
To evaluate the effects of the liposomal lupeol acetate (Lipo-LA) of present invention on the suppression of rheumatoid arthritis, we firstly analyze the differentiation of osteoclasts from certain cells using the tartrate-resistant acid phosphatase (TRAP) staining method. The TRAP staining is used to detect the internal acid phosphatase activity of leukocytes in a blood, bone or tissue sample. Because osteoclasts contain acid phosphatase, we can use this staining method to determine the formation of osteoclast cells.
After removing the supernatant of culture, the cells are rinsed with PBS for two times, and then fixed with 3.7% paraformaldehyde for 1 hour. The fixed cells are washed with PBS. The Acid Phophatase Leukocyte kit (TRAP stain, Cat. 387-A, Sigma-Aldrich, USA) is used in the TRAP staining and the method is briefly described as follow. Before staining, the temperature of ddH2O used for adjuvant preparation is confirmed to be 37° C. The Fast Garnet GBC base and sodium nitrite solution at equal volumes are uniformly mixed for 30 seconds and incubated at room temperature for at least two minutes. […]

IL-1β = experiment: Immunohistochemistry of IL-1β in leg joints of CIA mice; assay type: in vivo, mouse; details: 100 mg/kg LA or 50 mg/kg Lipo-LA, day 43, vs RA group
Description: (§2) In FIG. 8A, mice were sacrificed at the end of the animal experiment (day 43), and the legs was removed for the immunohistochemistry (IHC) of TNF-α and IL-1β and H&E staining. The arrows in H&E images indicate the position of articular cavity. There is significant accumulation of TNF-α and IL-1β appeared in the RA group.
(§3) Observing the suppressive effects of Lipo-LA on joint inflammation using immunohistochemistry (IHC). […] The legs of mouse were removed and subjected to paraffin embedding and sectioning. The sections were stained with anti-TNF-α and anti-IL-1β antibodies, respectively to assess the distribution of inflammatory cytokines.

TNF-α = experiment: Immunohistochemistry of TNF-α in leg joints of CIA mice; assay type: in vivo, mouse; details: 100 mg/kg LA or 50 mg/kg Lipo-LA, day 43, vs RA group
Description: as §2, §3

TGF-β = TGF-β in mouse hind leg proteins, Western blotting; details: 100 mg/kg LA or 50 mg/kg Lipo-LA, day 32
Procedure: as §4, §5

rheumatoid arthritis = details: US Patent Application no. 20120177754; 100 mg/kg, 12 days needed in mice; cited from earlier work
[1] = system: inflammatory condition induced by carrageenan; details: Lucetti D L et al. J Inflamm 2010; cited from earlier work
[2] = system: collagen-induced arthritis (CIA) in DBA/1J mice; experiment: Collagen-induced arthritis (CIA) animal model; details: oral daily
[3] = 100 mg/kg LA or 50 mg/kg Lipo-LA, vs RA group

| Compound | expression of NFATc1 (NFATc1) | cell death of RAW264.7 cells (cell viability, MTT) (RAW 264.7 cells) | level of IL-10 (IL-10) | differentiation of osteoclast from macrophage (TRAP staining) (osteoclasts) | IL-1β staining (IHC) in joint (IL-1β) | TNF-α staining (IHC) in joint (TNF-α) | level of TGF-β (TGF-β) | inhibiting inflammation and treatment of rheumatoid arthritis (rheumatoid arthritis) | inflammatory condition induced by carrageenan in mice [1] | arthritis scores (highest 16 points per mouse) [2, 3] | foot swelling [2, 3] | incidence of arthritis [2, 3] | toxic effects judged by changes in body weight of mice ([2]; 100 mg/kg LA) |
| --- | --- | --- | --- | --- | --- | --- | --- | --- | --- | --- | --- | --- | --- |
| Nc1ccc2ncnc(NCCc3ccc(Oc4ccccc4)cc3)c2c1 [QNZ] | reduces | does not cause significant cell death |  |  |  |  |  |  |  |  |  |  |  |
| Lupeol acetate [LA] |  |  | rising trend | inhibitory effects | improvements | improvements | rising trend | significant therapeutic effect | effectively mitigate | significantly less scores | significantly reduced | decreased incidence percentages | no toxic effects |
